The values below come from paper PMC10892093 (Pharmaceutics, 2024).

For data set [1] the following is noted: value set for the static model; cited from earlier work.
In data set [2] the target is T1, UGT2B15 (Homo sapiens, UniProt P54855).
T1 construct: expressed in transfected cells; cell homogenate
T1 sequence (P54855 24-530): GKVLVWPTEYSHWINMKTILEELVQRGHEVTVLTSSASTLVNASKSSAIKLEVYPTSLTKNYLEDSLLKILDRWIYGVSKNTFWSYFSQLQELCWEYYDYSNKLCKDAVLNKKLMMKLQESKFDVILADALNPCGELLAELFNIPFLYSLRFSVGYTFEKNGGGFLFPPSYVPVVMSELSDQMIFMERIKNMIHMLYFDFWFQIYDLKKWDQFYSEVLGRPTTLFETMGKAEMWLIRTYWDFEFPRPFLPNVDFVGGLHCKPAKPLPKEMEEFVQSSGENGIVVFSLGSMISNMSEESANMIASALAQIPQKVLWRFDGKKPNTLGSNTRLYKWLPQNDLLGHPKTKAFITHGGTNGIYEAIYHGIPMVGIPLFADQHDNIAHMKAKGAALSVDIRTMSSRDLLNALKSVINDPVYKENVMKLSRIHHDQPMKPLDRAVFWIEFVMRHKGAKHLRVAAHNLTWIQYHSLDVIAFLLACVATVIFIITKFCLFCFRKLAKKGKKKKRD
Nature of the data set: Inhibition of S-oxazepam glucuronidation in rUGT2B15 homogenate/microsomes (UGT-overexpressing HEK293). It is filed as biochemical. On the procedure: (§1) Human embryonic kidney cells (HEK293) stably overexpressing the single UGTs 1A9, 2B7, and 2B15 have been previously established and described. Cells were grown in DMEM supplemented with 350 μg/mL of geneticin and 10% FBS and harvested in PBS. Microsomal fractions of UGT-overexpressing cell lines were prepared by differential centrifugation using previously described protocols. Briefly, cell homogenates were prepared by resuspending pelleted cells in PBS, followed by five rounds of freeze–thaw cycles prior to homogenization. Recombinant microsomes (rUGTs) were prepared by centrifuging the cell homogenate at a low speed (9000× g for 30 min) followed by ultracentrifugation (34,000× g for 60 min), with the total protein subsequently determined using a BCA assay. Recombinant microsomes (UGT1A9 and 2B7) and homogenates (UGT2B15) were used for inhibition studies.
(§2) A Waters Corp BEH C18 Acquity UPLC column (1.7 µM, 2.1 × 100 mm) was used at a constant temperature of 40 °C for chromatographic separation. An elution gradient was used for 6.5 min with mobile phases A (5 mM ammonium formate) and B (100% methanol) under the following conditions: 90% A for 0.5 min, followed by a linear gradient for 3 min to 60% A, 1 min at 5% A, and re-equilibration for 1 min at 90% A.
(§3) The reaction was initiated by the addition of 4 mM UDPGA as the cofactor and incubated for 2 h at 37 °C. The reaction was terminated by adding 30 µL of an ice-cold stop solution (acetonitrile/methanol; 1:1). The reaction mixtures were centrifuged at 17,000× g for 30 min at 4 °C, and the supernatant was transferred to UPLC sample glass vial for analysis using UPLC–MS/MS (described above). […] As a positive control for inhibition assays, ketoconazole (10 μM and 100 µM) was used as a potential inhibitor of the UGTs 1A9, 2B7, and 2B15. Reactions containing only the cannabinoid vehicle (3% methanol) and without any inhibitor (cannabinoids) were used as a baseline reaction for 100% enzyme activity, while a reaction without UDPGA was used as a negative control. All experiments were performed in three independent experiments.
(§4) Determination of IC50 and Ki Values. […] The nonspecific binding constants (fu,inc) for cannabinoids in HEK293 microsomes, HLM, and HKM were previously determined and used to calculate the inhibition by unbound (‘free’) cannabinoid in each reaction. A nonlinear regression analysis and the following equation were used to calculate the IC50 values:(1) y = Bottom +Top − Bottom / 1 + 10^x − LogIC50A where ‘Bottom’ is the maximum observed inhibition (lowest percent activity) and ‘Top’ is the minimum observed inhibition (highest percent activity) for a given cannabinoid.

Data set [3] concerns the target T2, UGT2B7 (Homo sapiens, UniProt P16662).
T2 construct: expressed in transfected cells; microsomal fraction
T2 sequence (P16662 24-529): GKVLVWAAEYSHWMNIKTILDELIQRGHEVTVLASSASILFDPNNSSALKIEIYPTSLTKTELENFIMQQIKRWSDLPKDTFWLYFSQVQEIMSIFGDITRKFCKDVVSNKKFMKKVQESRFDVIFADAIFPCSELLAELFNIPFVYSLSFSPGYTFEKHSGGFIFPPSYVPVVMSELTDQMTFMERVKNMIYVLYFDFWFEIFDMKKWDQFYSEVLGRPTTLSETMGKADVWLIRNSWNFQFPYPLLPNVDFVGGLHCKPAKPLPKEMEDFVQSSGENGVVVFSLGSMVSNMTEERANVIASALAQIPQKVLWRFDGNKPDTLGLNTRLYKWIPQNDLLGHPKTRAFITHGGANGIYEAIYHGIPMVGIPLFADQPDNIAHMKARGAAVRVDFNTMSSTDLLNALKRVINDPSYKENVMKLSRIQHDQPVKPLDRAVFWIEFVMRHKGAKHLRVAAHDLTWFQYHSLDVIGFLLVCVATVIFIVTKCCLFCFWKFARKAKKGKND
The experiment in a line: Inhibition of R- and S-oxazepam glucuronidation in rUGT2B7 microsomes (UGT-overexpressing HEK293). The data set is classed as biochemical. As for the experimental part: as §1, §2, §3, §4

Data set [4] has as its target T3, UGT1A9 (Homo sapiens, UniProt O60656).
T3 construct: expressed in transfected cells; microsomal fraction
T3 sequence (O60656 26-530): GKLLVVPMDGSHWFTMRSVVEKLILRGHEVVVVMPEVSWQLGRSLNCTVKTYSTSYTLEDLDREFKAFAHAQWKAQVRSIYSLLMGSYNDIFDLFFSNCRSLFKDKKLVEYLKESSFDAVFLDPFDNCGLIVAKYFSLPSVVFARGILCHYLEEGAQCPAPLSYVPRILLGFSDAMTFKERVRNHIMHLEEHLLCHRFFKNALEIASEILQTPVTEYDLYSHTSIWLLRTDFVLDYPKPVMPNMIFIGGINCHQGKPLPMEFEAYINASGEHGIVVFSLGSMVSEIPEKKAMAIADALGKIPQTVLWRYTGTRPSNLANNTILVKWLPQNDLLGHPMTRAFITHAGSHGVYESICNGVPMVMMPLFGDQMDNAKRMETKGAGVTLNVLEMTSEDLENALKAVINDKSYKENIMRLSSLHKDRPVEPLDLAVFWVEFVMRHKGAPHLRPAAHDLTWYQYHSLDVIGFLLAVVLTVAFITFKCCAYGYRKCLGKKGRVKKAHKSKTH
Nature of the data set: Inhibition of R-oxazepam glucuronidation in rUGT1A9 microsomes (UGT-overexpressing HEK293). The data set is classed as biochemical. As for the experimental part: as §1, §2, §3, §4

Data set [5] concerns human kidney microsomes (HKM). The experiment in a line: Inhibition of R- and S-oxazepam glucuronidation in human kidney microsomes. Particulars: read-out: IC50, oxazepam glucuronidation (marginal or no inhibition). As for the experimental part: as §2, §3, §4
The test system of data set [6] is human liver microsomes (HLM). Nature of the data set: Inhibition of R- and S-oxazepam glucuronidation in human liver microsomes. To be noted: read-out: IC50, oxazepam glucuronidation (marginal or no inhibition). On the procedure:
as §2, §3, §4
The inhibition constant (Ki) was generated from the in vitro IC50 values assuming competitive inhibition (based on the Cheng–Prusoff equation; [49]). Considering that there have been no reports of the irreversible inhibition (e.g., mechanism-based inhibition) of UGTs, competitive inhibition was assumed as the worst-case scenario (highest inhibition) among all feasible types of reversible inhibitions. The substrate concentration used in the incubations was below the reported Km; therefore, the Ki values were predicted using Equation (2):(2) Ki=IC50/S/Km+1 where Km is Michaelis–Menten constant for the substrate, S is the substrate concentration, and IC50 is half-maximal inhibitory concentration.
For orientation: Liver microsomes are vesicles of endoplasmic reticulum, rich in cytochrome P450 enzymes.

Where [7] appears, read: rUGT2B7 microsomes, 100 µM cannabinoid.

For the compound `O=C1Nc2ccc(Cl)cc2C(c2ccccc2)=NC1O` (stereo not drawn) [oxazepam, Oxazepam], in data set [1], the “fm (fractional metabolism via glucuronidation)” value is 0.8.
As a reminder, the inhibition is the percentage by which the read-out fell short of the control. High values mean a response far below the control, low ones a response near the control. For `CC(=O)N1CCN(c2ccc(OCC3COC(Cn4ccnc4)(c4ccc(Cl)cc4Cl)O3)cc2)CC1` (stereo not drawn) [ketoconazole], the inhibition at 2 h, 100 µM in data set [2] (human, pH 7.4, probe R,S-oxazepam 12 µM, oxazepam glucuronide formation, rUGT2B15 microsomes, 100 µM ketoconazole, range over the three enzymes) is 49 to 85%; in data set [3] (human, pH 7.4, probe R,S-oxazepam 60 µM, oxazepam glucuronide formation, Inhibition of oxazepam glucuronide formation, rUGT2B7 microsomes, 100 µM ketoconazole, range over the three enzymes), 49 to 85%; in data set [4] (human, pH 7.4, probe R,S-oxazepam 4 µM, oxazepam glucuronide formation, rUGT1A9 microsomes, 100 µM ketoconazole, range over the three enzymes), 49 to 85%.
What is called IC50 is the concentration that inhibits the measured activity by half. Take `CCCCCc1cc(O)c2c(c1)OC(C)(C)[C@@H]1CCC(C(=O)O)=C[C@@H]21` [11-COOH-THC, 11-nor-9-carboxy-Δ^9-tetrahydrocannabinol]: the concentration for half-maximal inhibition (IC50) was above 100 µM in data set [2] (read-out: IC50, oxazepam glucuronidation (marginal or no inhibition), recombinant UGT microsomes (rUGT2B15)); above 100 µM in data set [5]; above 100 µM in data set [3] (read-out: IC50, oxazepam glucuronidation (marginal or no inhibition), recombinant UGT microsomes (rUGT2B7)); above 100 µM in data set [4] (read-out: IC50, oxazepam glucuronidation (marginal or no inhibition), recombinant UGT microsomes (rUGT1A9)); above 100 µM in data set [6]. Moreover, the “Inhibition of R-oxazepam glucuronidation” value in data set [3] (setting [7]) was 45%. For the same compound, the “Inhibition of S-oxazepam glucuronidation” value in data set [3] (setting [7]) is given as 55%. The “Inhibition of R-oxazepam glucuronide formation” value in data set [4] (rUGT1A9 microsomes, 100 µM cannabinoid, vs control without cannabinoid) is 80%.
